From the NIST ThermoML archive (doi:10.1021/je900405j) come the findings set out here.

± gives the expanded uncertainty stated by the source.

The conditions of the data set: for viscosity: 101.33 kPa, Cone and plate viscometry; for viscosity / surface tension liquid-gas: Liquid; for surface tension liquid-gas: 293 K; for Normal melting temperature: Crystal; for Normal melting temperature / Glass transition temperature: DTA.

Regarding `CCn1cc[n+](C)c1.F[B-](F)(F)F` [1-ethyl-3-methylimidazolium tetrafluoroborate], the surface tension liquid-gas (commonly the work needed to enlarge the surface of a liquid by unit area) is 53 ± 7 mN/m. Also, the viscosity – broadly, the internal friction of a fluid under shear – (290 K) amounted to 46 ± 10 mPa·s. Besides, under “295 K”, the viscosity is recorded as 41 ± 10 mPa·s. In addition, the viscosity (300 K) is 32 ± 10 mPa·s. The viscosity (305 K) stood at 31 ± 10 mPa·s. Where the note is “310 K”, the viscosity was found to be 27 ± 10 mPa·s. The viscosity (315 K) was found to be 24 ± 10 mPa·s. Under “320 K”, the viscosity was 22 ± 10 mPa·s. Also, the viscosity (325 K) was 21 ± 10 mPa·s. Besides, the viscosity (330 K) is recorded as 19 mPa·s. Moreover, for the setting “335 K”, the viscosity turned out to be 18 mPa·s. Besides, the viscosity (340 K) came to 18 mPa·s. Further, for the setting “345 K”, the viscosity came to 16 mPa·s. In addition, the viscosity (350 K) worked out at 15 mPa·s. The viscosity (355 K) came out at 15 mPa·s. Further, the viscosity (360 K) is given as 15 mPa·s. Moreover, the viscosity (365 K) was determined as 13 mPa·s.

Turning to `CCn1cc[n+](C)c1.N#CN=C=[N-]` [1-ethyl-3-methylimidazolium dicyanamide], the surface tension liquid-gas worked out at 64 ± 9 mN/m, the Normal melting temperature is -18 ± 2 °C and the Glass transition temperature is -96 ± 3 °C. In addition, the viscosity (290 K) was 24 mPa·s. Besides, the viscosity (295 K) was found to be 21 mPa·s. Under “300 K”, the viscosity was 19 mPa·s. The viscosity (305 K) amounted to 18 mPa·s. Besides, the viscosity (310 K) was 17 mPa·s. In addition, the viscosity (315 K) came out at 16 mPa·s. Also, the viscosity (320 K) is given as 15 mPa·s. Also, the viscosity (325 K) came out at 15 mPa·s. Moreover, the viscosity (330 K) stood at 14 mPa·s. Further, the viscosity (335 K) is recorded as 14 mPa·s. Besides, the viscosity (340 K) is 13 mPa·s. Where the note is “345 K”, the viscosity worked out at 13 mPa·s. Also, where the note is “350 K”, the viscosity was found to be 12 mPa·s. Moreover, the viscosity (355 K) was found to be 12 mPa·s. Also, the viscosity (360 K) was determined as 12 mPa·s. Also, the viscosity (365 K) worked out at 12 mPa·s.

For the molecule `CCCC[N+]1(C)CCCC1.FC(F)(F)C(F)(F)[P-](F)(F)(F)(C(F)(F)C(F)(F)F)C(F)(F)C(F)(F)F`, the surface tension liquid-gas was found to be 38 ± 5 mN/m, the Normal melting temperature was determined as 4 ± 2 °C and the Glass transition temperature was -116 ± 3 °C. Besides, for the setting “290 K”, the viscosity worked out at 355 ± 17 mPa·s. For the setting “295 K”, the viscosity is 272 ± 14 mPa·s. In addition, the viscosity (300 K) was determined as 209 ± 12 mPa·s. Moreover, under “305 K”, the viscosity is reported as 163 ± 11 mPa·s. For the same molecule, the viscosity (310 K) was 129 ± 10 mPa·s. The viscosity (315 K) is reported as 105 ± 10 mPa·s. Further, the viscosity (320 K) is reported as 87 ± 10 mPa·s. Moreover, the viscosity (325 K) is on record as 72 ± 10 mPa·s. Besides, for the setting “330 K”, the viscosity is 62 ± 10 mPa·s. Also, for the setting “335 K”, the viscosity came out at 53 ± 10 mPa·s. For the same molecule, for the setting “340 K”, the viscosity is 47 ± 10 mPa·s. Further, for the setting “345 K”, the viscosity stood at 41 ± 10 mPa·s. Also, the viscosity (350 K) is 37 ± 10 mPa·s. In addition, under “355 K”, the viscosity was 34 ± 10 mPa·s. The viscosity (360 K) is 30 ± 10 mPa·s. For the same molecule, the viscosity (365 K) was found to be 28 ± 10 mPa·s.

In the case of `CCC[n+]1ccn(C)c1C.O=S(=O)([N-]S(=O)(=O)C(F)(F)F)C(F)(F)F`, the surface tension liquid-gas is listed as 41 ± 6 mN/m, the Normal melting temperature was 8 ± 2 °C and the Glass transition temperature was -109 ± 20 °C. Further, the viscosity (290 K) is 131 ± 10 mPa·s. The viscosity (295 K) is on record as 106 ± 10 mPa·s. Moreover, the viscosity (300 K) amounted to 85 ± 10 mPa·s. In addition, for the setting “305 K”, the viscosity is reported as 69 ± 10 mPa·s. Also, where the note is “310 K”, the viscosity was 58 ± 10 mPa·s. For the setting “315 K”, the viscosity was found to be 49 ± 10 mPa·s. The viscosity (320 K) stood at 42 ± 10 mPa·s. The viscosity (325 K) came out at 37 ± 10 mPa·s. For the same molecule, the viscosity (330 K) is on record as 33 ± 10 mPa·s. Also, the viscosity (335 K) came out at 29 ± 10 mPa·s. Further, the viscosity (340 K) worked out at 27 ± 10 mPa·s. For the same molecule, the viscosity (345 K) was 24 ± 10 mPa·s. Further, the viscosity (350 K) was 23 ± 10 mPa·s. The viscosity (355 K) is recorded as 21 ± 10 mPa·s. Besides, under “360 K”, the viscosity was 20 mPa·s. The viscosity (365 K) amounted to 19 mPa·s.
